Reference: patent US20060222671A1, “Dermatological compositions and salts for the treatment of dermatological diseases” (Astion Development A/S, priority 2005, published 2006)
Entries after “also recorded” stand apart in the source; their conditions may differ.

What was measured:
human skin inflammation = conditions: topical treatment; cited from earlier work
[1] = target: T1, Protein Tyrosine Kinase, ZA70 (ZAP-70) (Homo sapiens, UniProt P43403); experiment: Protein Tyrosine Kinase ZA70 (ZAP-70) enzyme assay (MDS Pharma Service No. 155987); format: biochemical
T1 construct: purchased MDS Pharma Services (contract assay) 155987
T1 sequence (P43403 1-619): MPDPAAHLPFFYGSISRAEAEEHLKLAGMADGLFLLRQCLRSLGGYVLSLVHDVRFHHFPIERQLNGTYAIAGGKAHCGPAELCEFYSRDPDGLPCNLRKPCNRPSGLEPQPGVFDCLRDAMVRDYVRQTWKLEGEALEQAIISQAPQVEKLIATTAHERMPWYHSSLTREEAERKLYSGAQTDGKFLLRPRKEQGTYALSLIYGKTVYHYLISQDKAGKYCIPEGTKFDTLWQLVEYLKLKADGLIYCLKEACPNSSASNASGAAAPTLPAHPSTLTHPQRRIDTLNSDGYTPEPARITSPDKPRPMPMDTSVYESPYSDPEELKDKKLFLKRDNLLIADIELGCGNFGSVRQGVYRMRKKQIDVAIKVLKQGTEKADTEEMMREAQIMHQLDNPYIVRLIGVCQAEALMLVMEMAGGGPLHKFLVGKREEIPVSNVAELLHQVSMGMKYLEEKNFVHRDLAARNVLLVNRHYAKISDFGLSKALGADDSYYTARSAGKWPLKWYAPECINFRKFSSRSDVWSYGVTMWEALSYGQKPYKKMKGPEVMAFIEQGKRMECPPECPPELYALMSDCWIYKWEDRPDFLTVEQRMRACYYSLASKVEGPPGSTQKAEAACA
Procedure: (§1) The enzyme assays were conducted by MSD Pharma Services.

[2] = target: T2, Protein Tyrosine Kinase, SYK (Homo sapiens, UniProt P43405); experiment: Protein Tyrosine Kinase SYK enzyme assay (MDS Pharma Service No. 155761); format: biochemical
T2 construct: purchased MDS Pharma Services (contract assay) 155761
Procedure: as §1

guinea pig skin [3] = conditions: in vivo
Procedure: Test for skin sensitization is carried out according to the Magnusson and Kligman method (J. Invest. Dermatol. 1969. 52, 268-276) and in accordance with O.E.C.D. Guideline No. 406 of Jul. 17th, 1992, and the test method B.6 of the 96/54 E.E.C Directive.
Albino guinea pigs of Dunkin-Hartley strain were exposed to the test item after an acclimatisation period of at least five days.
The Maximum Non Necrotizing Concentration (M.N.N.C.) was determined by injecting by intradermal route the following concentrations: 2.5%, 1.25%, 0.625%, 0.3125%, 0.1562% and 0.078% diluted in physiological saline solution.
Pre-Maximum Non Irritant Concentration (pre-M.N.I.C.) was determined by application of the test item under an occlusive dressing during 24 hours, at the following concentrations: 2.5%, 1.25%, 0.625%, 0.3125% diluted in physiological saline solution.
Maximum Non Irritant Concentration (M.N.I.C.) was determined by initially establishing an induction phase by intradermal injection with a physiological saline solution and by topical application of distilled water followed by a 18-day rest phase. In the challenge phase where the test item is under occlusive dressing for 24 hours, the test item was applied to the skin of the Albino guinea pigs at the following concentrations: 2.5%, 1.25%, 0.625%, 0.3125% diluted in physiological saline solution.

Phosphodiesterase PDE IV = Phosphodiesterase PDE IV enzyme assay (MDS Pharma Service No. 154000); format: biochemical
Procedure: as §1

[4] = system: oxazolone induced ear inflammation in mice; experiment: Oxazolone induced mouse ear oedema assay; format: in vivo; conditions: for % inhibition of ear swelling: 24 hours after challenge; for inhibition of the formation of ear oedema: Example 7: 500 μg/ear dissolved in 96% ethanol
Procedure: This screening method is commonly employed for screening and evaluation of anti-inflammatory drugs, in particular with respect to the inflammation seen in contact dermatitis. Betamethasone-17 valerate was used as the positive control. […] Betamethasone was administered topically in quantities of 20 μg/ear. Betamethasone was applied in the commercial form Celeston valerate® 0.1%. All groups were immunised with 20 μl oxazolone, 1.6% in ethanol 96% (w/v) on the left and the right ear. The ear thickness of all mice on both the left and right side was measured with an electronic measuring gauge. All groups were challenged with 20 μl oxazolone (1.6% in ethanol 96% (w/v)) on the left ear and the right ear. Vehicle (acetone) or test article solutions were administered 20 minutes before and 20 minutes after oxazolone challenge. 24 hours after oxazolone challenge the ear thickness of all mice was measured with an electronic measuring gauge. Mean thickness of the ears and standard deviations were calculated. Ear swelling was calculated as the difference between the ear thickness day 7 and day 8. […] Differences in ear swelling between the vehicle treated group and the other groups were tested for significance employing a non-parametric statistical method of analysis, the Mann-Whitney U test. The required level of significance was p<0.05. […] Both test articles were applied in a dose of 500 μg/ear and dissolved in 96% ethanol. Betamethasone, as the positive control was administered topically in quantities of 20 μg/ear.

undamaged skin area = experiment: Acute dermal irritation; format: in vivo; conditions: for cutaneous reactions (erythema and oedema): 0.5 mL patch
Procedure: The sample was applied at a dose of 0.5 mL, on an undamaged skin area of the right flank of each animal. The patch was secured in position with a strip of surgical adhesive tape.
On the left flank an untreated area served as the control.
The skin reactions were evaluated after 1 hour and then after 24, 48 and 72 hours following removal of the patch according to the following grading scale:
Erythema (0: No erythema, 1: Slight (barely perceptible) erythema, 2: Definite erythema, 3: Moderate to severe erythema, 4: Severe erythema (purple) with formation of eschars (deep lesions) preventing erythema from being grading).
Oedema (0: No oedema, 1: Very slight (barely perceptible) oedema, 2: Slight oedema (contour clearly defined), 3: Moderate oedema (thickness), 4: Severe oedema (thickness greater than 1 mm, surface larger than zone of application)

activated monocytes = conditions: cited from earlier work
[5] = 25° C.; cited from earlier work
guinea pig skin [6] = conditions: in vivo; remark: listed apart in the source
Procedure: Test for photo toxicity is carried out to evaluate the risk of cutaneous reactions on the guinea pig following exposure to ultraviolet radiation.
Thirty minutes after the treatment, the animals were subjected to ultraviolet radiations (UV-B first and then UV-A).
The animals were irradiated with the irradiation source VLX 3W (Biotronic, Vilbert Lourmat) at the Maximal Non Erythemateous Dose (M.N.E.D) 7000 J/cm2 for UV-A and 150 mJ/cm2 for the UV-B.
A macroscopic evaluation of the cutaneous reactions (erythema and oedema) was conducted 24 and 48 hours after irradiation.

NF-kappaB activation = conditions: in inflammatory cells; cited from earlier work
[7] = target: T3, anandamide hydrolase (a fatty acid amide hydrolase) (Homo sapiens, UniProt O00519); conditions: in neurons; cited from earlier work
T3 construct: host or cells: neurons
T3 sequence (O00519 1-579): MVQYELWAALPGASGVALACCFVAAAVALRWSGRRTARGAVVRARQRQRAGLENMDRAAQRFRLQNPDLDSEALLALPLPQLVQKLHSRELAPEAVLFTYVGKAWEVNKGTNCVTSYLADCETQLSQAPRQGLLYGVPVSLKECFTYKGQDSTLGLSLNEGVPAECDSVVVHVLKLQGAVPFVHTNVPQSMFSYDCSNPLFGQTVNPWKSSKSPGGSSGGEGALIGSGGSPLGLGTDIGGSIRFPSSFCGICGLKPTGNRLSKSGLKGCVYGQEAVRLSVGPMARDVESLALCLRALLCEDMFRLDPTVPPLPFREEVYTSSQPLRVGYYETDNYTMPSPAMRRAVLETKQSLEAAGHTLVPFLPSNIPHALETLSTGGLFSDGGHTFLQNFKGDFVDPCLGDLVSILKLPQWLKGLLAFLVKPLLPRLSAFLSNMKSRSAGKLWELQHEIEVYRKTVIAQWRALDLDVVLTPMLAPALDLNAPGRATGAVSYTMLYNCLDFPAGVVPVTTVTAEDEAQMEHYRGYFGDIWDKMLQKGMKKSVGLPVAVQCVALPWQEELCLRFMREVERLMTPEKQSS

skin = conditions: in vivo; cited from earlier work
[8] = system: inflammation following treatment with cryotherapy; conditions: topical; moderate to severe inflammation following cryotherapy; cited from earlier work
[9] = system: chronic stable plaque psoriasis; conditions: topical 1%; cited from earlier work
contact dermatitis = conditions: topically applied; cited from earlier work
[10] = Oxaprozin as the monoethanolamine salt
[11] = monoethanolamine salt 5% by weight in water

CC(C(=O)O)c1ccc(-c2ccccc2)c(F)c1 (stereo not shown) [flubiprofen]
effect on human skin inflammation (human skin inflammation): reduces human skin inflammation

O=C(O)CCc1nc(-c2ccccc2)c(-c2ccccc2)o1 [Monoethanolamine Oxaprozin]
IC50 [1, 10]: 38 µM | IC50 [2, 10]: 28 µM | skin sensitization (guinea pig skin [3]): not causing sensitization reactions | IC50 (Phosphodiesterase PDE IV; [10]): 22 µM | % inhibition of ear swelling ([4]; 250 μg/ear topical in acetone, 20 min before and after challenge): 53% | % inhibition of ear swelling ([4]; 500 μg/ear topical in acetone, 20 min before and after challenge): 77% | % inhibition of ear swelling ([4]; 1000 μg/ear topical in acetone, 20 min before and after challenge): 95% | inhibition of ear swelling (in words) ([4]; 250-1000 μg/ear): dose dependent and highly significant inhibition of ear swelling | inhibition of ear swelling compared with positive control ([4]; highest dose (1000 μg/ear) vs Betamethasone 17-valerate 20 μg/ear): significantly stronger than the inhibition obtained with Betamethasone 17-valerate

O=C(O)CCc1nc(-c2ccccc2)c(-c2ccccc2)o1 [Oxaprozin, 4,5-diphenyl-2-oxazole-propionic acid]
cutaneous reactions (erythema and oedema) (undamaged skin area; monoethanolamine salt 2.5% by weight in water, 1, 24, 48, 72 hours): no cutaneous reactions (erythema and oedema) were observed | reversibility of erythema (undamaged skin area; [11]): totally reversible between the 2nd and the 3rd day of the test | cutaneous reactions (erythema and oedema) (undamaged skin area; [11]): only a slight erythema on the treated area at the reading time 1 hour | apoptosis of activated monocytes (activated monocytes): induces apoptosis of activated monocytes in a dose-dependent manner | solubility in water [5]: about 1.7 mg/ml | photo toxicity (guinea pig skin [6]): not phototoxic | inhibition of the formation of ear oedema [4]: statistically significant inhibition of the formation of ear oedema | inhibition of NF-kappaB activation (NF-kappaB activation): inhibits | inhibition of anandamide hydrolase [7]: inhibits

CCCCOc1ccc(CC(=O)NO)cc1 [Bufexamac]
cutaneous side effects (skin): reported to cause contact allergy; also recorded: major contact allergens | inhibitory effect on Protein Tyrosine Kinase ZAP-70 [1]: only exhibits inhibitory effect on the PDE-IV enzyme | inhibitory effect on Protein Tyrosine Kinase SYK [2]: only exhibits inhibitory effect on the PDE-IV enzyme | inhibitory effect on the PDE-IV enzyme (Phosphodiesterase PDE IV): exhibits inhibitory effect | inhibition of the formation of ear oedema [4]: did not inhibit the formation of ear oedema at all

CC(=O)Oc1ccccc1C(=O)O [aspirin]
cutaneous side effects (skin): may induce urticarial reactions

CCCCC(=O)O[C@]1(C(=O)CO)[C@@H](C)C[C@H]2[C@@H]3CCC4=CC(=O)C=C[C@]4(C)[C@@]3(F)[C@@H](O)C[C@@]21C [Betamethasone 17-valerate]
% inhibition of ear swelling ([4]; 20 μg/ear topical (Celeston valerate 0.1%)): 66%

CCC(=O)O[C@]1(C(=O)CCl)[C@@H](C)C[C@H]2[C@@H]3CCC4=CC(=O)C=C[C@]4(C)[C@@]3(F)[C@@H](O)C[C@@]21C [clobetasol propionate]
relief of erythema and oedema [8]: proved to have effect

CN1C(C(=O)Nc2ccccn2)=C(O)c2ccccc2S1(=O)=O [piroxicam]
cutaneous side effects (skin): can lead to phototoxic or photo allergic dermatitis

CC(C(=O)O)c1cccc(C(=O)c2ccccc2)c1 (stereo not shown) [Ketoprofen]
cutaneous side effects (skin): major contact allergens

O=C(O)Cc1ccccc1Nc1c(Cl)cccc1Cl [Diclofenac]
cutaneous side effects (skin): irritant-type contact dermatitis may develop

COc1ccc2c(c1)c(CC(=O)O)c(C)n2C(=O)c1ccc(Cl)cc1 [indomethacin]
cutaneous side effects (skin): may induce urticarial reactions | effect on chronic stable plaque psoriasis [9]: no effect | relief of erythema and oedema [8]: poor effect in relieving the erythema and oedema | response in animal model of contact dermatitis (contact dermatitis): shown to respond
